Results on seven compounds are retold here after ChEMBL document CHEMBL1151017, “The synthesis of N-aryl androsterone pyrazoles as aromatase inhibitors” (Bioorg Med Chem Lett, 1997).

Assay [1] deals with T1, Aromatase (Homo sapiens, UniProt P11511).
T1 sequence (P11511 whole entry): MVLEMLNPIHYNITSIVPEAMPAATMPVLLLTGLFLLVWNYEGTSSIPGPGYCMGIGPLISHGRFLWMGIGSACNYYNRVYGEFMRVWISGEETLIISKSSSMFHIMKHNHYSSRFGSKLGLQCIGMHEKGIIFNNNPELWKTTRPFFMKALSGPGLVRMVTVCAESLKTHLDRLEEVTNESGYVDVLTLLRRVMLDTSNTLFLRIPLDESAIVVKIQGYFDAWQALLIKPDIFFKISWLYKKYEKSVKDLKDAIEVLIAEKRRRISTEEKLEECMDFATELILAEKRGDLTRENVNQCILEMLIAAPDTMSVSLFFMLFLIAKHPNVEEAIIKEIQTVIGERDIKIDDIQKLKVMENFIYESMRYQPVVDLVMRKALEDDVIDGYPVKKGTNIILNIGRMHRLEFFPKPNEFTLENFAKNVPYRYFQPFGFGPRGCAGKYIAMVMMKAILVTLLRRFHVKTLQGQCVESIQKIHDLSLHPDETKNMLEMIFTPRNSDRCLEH
Put plainly: Inhibition of cytochrome P450 19A1 aromatase from human placental microsomes.

Assay [2] has as its target T1, Aromatase. In words: Inhibition of aromatase cytochrome P450 from human placental microsomes; 800-1000.

Structures are written as SMILES.

As a reminder, the IC50 is the concentration needed to halve the response being measured. Read a low IC50 as greater potency in that assay.

`CC12CCC3C(Cc4c5c(nn4Cc4ccc([N+](=O)[O-])cc4)C(=O)CCC53C)C1CCC2=O` (configuration not stated): the IC50 in assay [1] stood at 490 nM. This counts as sub-micromolar.
The same measure, in the same setting: as for `CC12CCC3C(Cc4c5c(nn4Cc4ccccc4)C(=O)CCC53C)C1CCC2=O` (configuration not stated), the figure is 245 nM.
`CC12CCC3C(Cc4nn(C/C=C/c5ccccc5)c5c4C3(C)CCC5=O)C1CCC2=O` (configuration not stated) displayed an IC50 in assay [2] of 800 nM. This counts as sub-micromolar.
For the compound `CC12CCC3C(Cc4[nH]nc5c4C3(C)CCC5=O)C1CCC2=O` (configuration not stated), the IC50 in assay [1] worked out at 236 nM.
Still for that read-out and setting: next, `CC12CCC3C(Cc4nn(Cc5ccccc5)c5c4C3(C)CCC5=O)C1CCC2=O` (configuration not stated): 342 nM; `CC12CCC3C(Cc4nn(Cc5ccc([N+](=O)[O-])cc5)c5c4C3(C)CCC5=O)C1CCC2=O` (configuration not stated): 658 nM.
Take `CC12CCC3C(Cc4c5c(nn4C/C=C/c4ccccc4)C(=O)CCC53C)C1CCC2=O` (configuration not stated): the IC50 in assay [1] is 950 nM.
